The results in this text go back to ChEMBL document CHEMBL1155003, “Halicyclamine A, a marine spongean alkaloid as a lead for anti-tuberculosis agent” (2008).

Structures are written as SMILES. In brackets after ≈: the same amount, converted by molar mass. Activity calls are given as the source filed them. No cut-off for these calls is given here. Some results are limits rather than exact numbers.

Assay [1] concerns Mycobacterium tuberculosis. Put plainly: Antitubercular activity against Mycobacterium bovis BCG under hypoxic condition after 14 days by MTT method. The format is functional. Conditions: variant bovis BCG, 336 h. A general note: Formazan colour is commonly taken as a measure of viable cells.
Assay [2] concerns Mycobacterium tuberculosis. The experiment in a line: Antitubercular activity against Mycobacterium bovis BCG under aerobic condition after 7 days by MTT method. Conditions: variant bovis BCG, 168 h. It counts as functional.
The test system of assay [3] is Mycobacterium tuberculosis. The experiment in a line: Bactericidal activity against Mycobacterium bovis BCG assessed as decrease in CFU at 10 ug/ml after 4 weeks. It counts as functional, organism-based. To be noted: variant bovis BCG.

For orientation: MIC means the lowest concentration found to suppress growth. A higher MIC goes with weaker potency. With `NNC(=O)c1ccncc1` [ISONIAZID], the results for the MIC in assay [1] and in assay [2] were > 100 µg/mL and 0.03 µg/mL (≈ 0.219 µM), respectively.
As to `C1=C2CCCC/C=C\C=C\CCN3CC[C@@H]4[C@H](CCCCCC/C=C\C=C/CCN(C2)C[C@H]14)C3` [HALICYCLAMINE A], in assay [3], the outcome was Active. In addition, the minimum inhibitory concentration (MIC) in assay [1] and in assay [2] was 1 µg/mL (≈ 2.16 µM) each time.
